# Data published in patent US20240209028A1, “CNP COMPOUNDS” (priority 2022, published 2024).
# Starred links: 1 amine or outer side, 2 acyl side, 3 side chain; linkers in the order of their positions; H or OH if unused. Positions of bridges follow the written chain, without caps; N, C: chain ends. Residues, ends and D or L forms follow the SMILES beside them. *: point of attachment. C18 diacid = O=C(O)CCCCCCCCCCCCCCCCC(=O)*; γGlu = O=C(O)[C@H](CCC(=O)[*:2])N[*:1]
# What was measured:
# [1] = CNP local tolerance study in LYD pigs (s.c. injection, histopathology); assay type: in vivo, domestic LYD pig
# Procedure, shortened: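 Domestic pigs dosed s.c. mid-back, 100 or 200 μl at approx. 4400 μM, in phosphate pH 6.5 or acetate pH 4.0 buffers with glycerol or propylene glycol; saline as negative control. Sites excised 4 or 5 days post injection, H&E sections graded on 5-level scale; necrosis used as marker.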
# [2] = tested on: mouse metatarsal bones; test: Mouse metatarsal bone dissection and culture (ex vivo bone growth); assay type: cell-based, mouse (NMRI); conditions: 100 nM, n=8
# Procedure: The purpose of this study was to evaluate bone growth after administration of CNP compounds in an ex vivo mouse model.
# Procedure: One-day old mouse pups (NMRI, Javier Labs France) were euthanised prior to dissection. All applicable international and internal Novo Nordisk guidelines for care and use of animals were followed. The three middle metatarsal bones were dissected out from each hind paw. The dissected bones were placed in 24-well cell culture plates and cultured in 400 μl a-Minimum Essential Media supplemented with 0.2% BSA, 1% Pen/Strep at 37° C. and 5% CO2. The bones from all animals were randomised into a control group and six CNP compound-treated groups (100 nM; n=8). The medium was changed every 2-3 days. All compounds were formulated according to the principles described in General Methods of Preparation—Method G. Compounds 9435 and 9483 were formulated in A) 5 mM sodium acetate, 250 mM glycerol, pH 4.0 while compounds 9384, 9407, 9480 and 9482 were formulated in B) 8 mM sodium phosphate, 250 mM glycerol, pH 7.4.
# Digital pictures were captured on day 0, 4, 7, 11, and 14 using a digital camera attached to a Nikon microscope. The length of each metatarsal bone was measured using ImageJ software and increase in bone length was expressed as percentage change from the length measured at the day of dissection (Mean (SD)).
# In Table 27, metatarsal bones were isolated from mice and cultured for up to 14 days. Length was measured every 3-4 days throughout the study and expressed as percentage change from day 0 (Mean (SD)). Statistically significant differences are indicated compared to control group (two-way ANOVA).
# [3] = Thioflavin T (ThT) assay: lagtime and peptide recovery; assay type: physicochemical; conditions: assay terminated after 45 hours
# Procedure, shortened: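 ThT (final about 1 μM) was added to peptide supernatants at pH 4.0 and 6.5 and incubated at 37 °C with orbital shaking for 45 h. Fluorescence (ex 444/em 485 nm) was read every 20 min, and lag-time was taken as the time to onset of signal rise. Recovery is the RP-UPLC (215 nm) total peak area after vs. before incubation.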
SMILES,local subcutaneous necrosis ([1]; 5 days after subcutaneous injections in the pig),assessment for human subcutaneous administration ([1]; based on pig local tolerance),"Increase in bone length, mean (%) change from day 0 ([2]; day 4 in culture) [%]","Increase in bone length, mean (%) change from day 0 ([2]; day 7 in culture) [%]","Increase in bone length, mean (%) change from day 0 ([2]; day 11 in culture) [%]","Increase in bone length, mean (%) change from day 0 ([2]; day 14 in culture) [%]","LagTime (h) at pH 6.5 ([3]; ThT assay, pH 6.5, 37° C.) [h]","local subcutaneous necrosis ([1]; pig, in vivo, sc)","LagTime (h) at pH 4.0 ([3]; ThT, 37° C., shaking) [h]"
CC[C@H](C)[C@@H]1NC(=O)[C@H](CCCNC(=N)N)NC(=O)[C@H](CC(=O)O)NC(=O)[C@H](CC(C)C)NC(=O)[C@@H]2CCCN2C(=O)[C@H](CC(C)C)NC(=O)CNC(=O)[C@H](Cc2ccccc2)NC(=O)[C@@H](NC(=O)CNC(=O)[C@H](CO)NC(=O)[C@H](CO)NC(=O)[C@H](CC(C)C)NC(=O)CNC(=O)[C@H](CCCCN)NC(=O)[C@H](CCCCN)NC(=O)[C@H](CCC(N)=O)NC(=O)[C@H](C)NC(=O)CNC(=O)[C@H](CCCCN)NC(=O)[C@H](Cc2ccc(O)cc2)NC(=O)[C@H](CCCCN)NC(=O)[C@H](CCCNC(=N)N)NC(=O)[C@H](C)NC(=O)[C@H](CCC(N)=O)NC(=O)[C@@H]2CCCN2C(=O)[C@H](Cc2c[nH]cn2)NC(=O)[C@H](CCC(=O)O)NC(=O)[C@H](CCC(N)=O)NC(=O)CC[C@H](NC(=O)CC[C@H](NC(=O)CC[C@H](NC(=O)CC[C@H](NC(=O)CC[C@H](NC(=O)CCCCCCCCCCCCCCCCC(=O)O)C(=O)O)C(=O)O)C(=O)O)C(=O)O)C(=O)O)CSSC[C@@H](C(=O)O)NC(=O)CNC(=O)[C@H](CC(C)C)NC(=O)CNC(=O)[C@H](CO)NC(=O)[C@H](CC(C)C)NC(=O)[C@H](CO)NC(=O)CNC1=O [compound 9482] ({C18 diacid-γGlu-γGlu-γGlu-γGlu-γGlu}-QEHPQARKYKGAQKKGLSSGCFGLPLDRIGSLSGLGC-OH; disulfide 21-37),no,acceptable,37.7,47.1,54.4,57.5,45,,
CC[C@H](C)[C@@H]1NC(=O)[C@H](CCCNC(=N)N)NC(=O)[C@H](CCC(=O)O)NC(=O)[C@H](CC(C)C)NC(=O)[C@@H]2CCCN2C(=O)[C@H](CC(C)C)NC(=O)CNC(=O)[C@H](Cc2ccccc2)NC(=O)[C@@H](NC(=O)CNC(=O)[C@H](CO)NC(=O)[C@H](CO)NC(=O)[C@H](CC(C)C)NC(=O)CNC(=O)[C@H](CCCCN)NC(=O)[C@H](CCCCN)NC(=O)[C@H](CCC(N)=O)NC(=O)[C@H](C)NC(=O)CNC(=O)[C@H](CCCCN)NC(=O)[C@H](Cc2ccc(O)cc2)NC(=O)[C@H](CCCCN)NC(=O)[C@H](CCCNC(=N)N)NC(=O)[C@H](C)NC(=O)[C@H](CCC(N)=O)NC(=O)[C@@H]2CCCN2C(=O)[C@H](Cc2c[nH]cn2)NC(=O)[C@H](CCC(=O)O)NC(=O)[C@H](CCC(N)=O)NC(=O)CC[C@H](NC(=O)CC[C@H](NC(=O)CC[C@H](NC(=O)CC[C@H](NC(=O)CCCCCCCCCCCCCCCCC(=O)O)C(=O)O)C(=O)O)C(=O)O)C(=O)O)CSSC[C@@H](C(=O)O)NC(=O)CNC(=O)[C@H](CC(C)C)NC(=O)CNC(=O)[C@H](CO)NC(=O)[C@H](CC(C)C)NC(=O)[C@H](CO)NC(=O)CNC1=O [compound 9483] ({C18 diacid-γGlu-γGlu-γGlu-γGlu}-QEHPQARKYKGAQKKGLSSGCFGLPLERIGSLSGLGC-OH; disulfide 21-37),,,30.2,39.5,49.7,51.5,,no to moderate,45
